# PMC6829536 (International Journal of Molecular Sciences, 2019)
# Key:
# P58W CaFADS = target: T1, P58W CaFADS (Corynebacterium ammoniagenes, UniProt Q59263, P58W); experiment: Isothermal titration calorimetry (ITC) of ligand binding at the FMNAT site; conditions: 20 mM PIPES
# T1 construct: made in house; host or cells: E. coli BL21(DE3)
# WT CaFADS [1] = target: T2, WT CaFADS (Corynebacterium ammoniagenes, UniProt Q59263); conditions: cited from earlier work
# T2 construct: made in house; host or cells: Escherichia coli
# L98W CaFADS = target: T3, L98W CaFADS (Corynebacterium ammoniagenes, UniProt Q59263, L98W); experiment: Isothermal titration calorimetry (ITC) of ligand binding at the FMNAT site; conditions: 20 mM PIPES
# T3 construct: made in house; host or cells: E. coli BL21(DE3)
# L98K CaFADS = target: T4, L98K CaFADS (Corynebacterium ammoniagenes, UniProt Q59263, L98K); experiment: as above; conditions: 20 mM PIPES, pH 7.0, no MgCl2
# T4 construct: made in house; host or cells: E. coli BL21(DE3)
# P56W CaFADS = target: T5, P56W CaFADS (Corynebacterium ammoniagenes, UniProt Q59263, P56W); experiment: as above; conditions: for -TΔS / ΔH / ΔG: P56W CaFADS, 20 mM PIPES
# T5 construct: made in house; host or cells: E. coli BL21(DE3)
# P56A/P58A CaFADS = target: T6, P56A/P58A CaFADS (Corynebacterium ammoniagenes, UniProt Q59263, P56A/P58A); experiment: as above; conditions: 20 mM PIPES
# T6 construct: made in house; host or cells: E. coli BL21(DE3)
# L98A CaFADS = target: T7, L98A CaFADS (Corynebacterium ammoniagenes, UniProt Q59263, L98A); experiment: as above; conditions: 20 mM PIPES
# T7 construct: made in house; host or cells: E. coli BL21(DE3)
# WT CaFADS [2] = target: T2, WT CaFADS; experiment: as above; conditions: 20 mM PIPES
# CaFADS variants [3] = experiment: Difference spectroscopy of flavin binding at the FMNAT site; parameters: species or system Corynebacterium ammoniagenes; conditions: all variants, 20 mM PIPES, 10 mM MgCl2, pH 7.0, 25 °C
# Description: Spectroscopic measurements were carried out following previously established conditions and protocols. UV–visible absorption spectra were recorded in a Cary 100 spectrophotometer (Agilent Technologies, Santa Clara, CA, USA). Experimental extinction coefficients at 279 nm (ε^279) for each variant were determined based on the Gill and von Hippel method. In short, the UV–visible absorbance spectrum of the protein was recorded. Then samples were denatured with guanidinium hydrochloride (6 M in 20 mM sodium phosphate, pH 6.5). Then, the absorbance spectrum of the denatured sample was recorded and its concentration was calculated considering the theoretical extinction coefficient determined using the amino acid sequence. This concentration, taking into account the protein dilution in the denaturation process, was then used to determine ε^279 at the protein maximum by using the native protein spectrum before denaturation. Difference spectroscopy measurements were carried out in 20 mM PIPES, 10 mM MgCl2, pH 7.0, with saturating concentrations of ligands. Circular dichroism (CD) spectra were recorded using a Chirascan spectropolarimeter (Appl. Phot. Ltd., Leatherhead, Surrey, UK) at 25 °C. […]
# CaFADS variants [4] = experiment: Qualitative detection of RFK, FMNAT and FADpp activities by TLC; assay type: biochemical, Corynebacterium ammoniagenes; conditions: all variants, 200 nM enzyme, 50 μM flavin, 0.2 mM ATP, 10 mM MgCl2, pH 7.0, 30 min and 2 h
# Description: RFK and FMNAT activities were qualitatively assayed by the incubation of enzymes with substrates and separation of flavins (substrates and products) from reaction mixtures using TLC on Silica Gel SIL-G-25 plates (20 × 20 cm, thickness 0.25 mm) as previously described. […] Reactions were stopped by boiling the preparations for 5 min. Flavin spots were visualized under UV light.
# [5] = system: Cc1cc2nc3c(=O)[nH]c(=O)nc-3n(C[C@H](O)[C@H](O)[C@H](O)CO)c2cc1C; experiment: purified protein, by the assay type; assay type: biochemical, Corynebacterium ammoniagenes; conditions: RF varied, saturating ATP, apparent value, 20 mM PIPES, 0.8 mM MgCl2, pH 7.0, 25 °C
# Description: Reactions were initiated by the addition of ~20 nM of enzyme. After 1 min incubation at 25 °C, the reactions were stopped by boiling the mixtures for 5 min. The composition of flavins in the supernatant was determined using an Alliance HPLC system (Waters, Milford, MA, USA) equipped with a 2707 autosampler and a HSST3 column (4.6 × 150 mm, 3.5 µm, Waters) preceded by a pre-column (4.6 × 20 mm, 3.5 µm, Waters). The chromatography was developed at 1 mL/min with a 6 min isocratic program of methanol 40% (v/v) in 5 mM ammonium acetate (pH 6.0). Detection of flavins was carried out using a 2475 Multi λ fluorescence detector (Waters), excitation wavelength of 470 nm and emission wavelength of 530 nm. […] The flavinic products of the reaction were identified by their retention times and quantified through their corresponding standard curves obtained under the same conditions. Controls containing free flavins in the absence of the enzyme were treated similarly to reaction samples to discard flavin degradation during RFK activity determination. […] In case of inhibition, the experimental data were fitted to a model describing the substrate inhibition of a bi-substrate mechanism. In these situations, errors in apparent Km and kcat (^appKm and ^appkcat) increased with the inhibition constant (Ki) value getting closer to Km^S. Reaction mixtures were evaluated in triplicates, and final results are expressed as the standard error of the fitted value (value ± SE).
# [6] = 10 mM MgCl2, pH 7.0, n.d. = no interaction profile was detected
molecule,measurement,setting,value
"Nc1ncnc2c1ncn2[C@@H]1O[C@H](COP(=O)(O)OP(=O)(O)OP(=O)(O)O)[C@@H](O)[C@H]1O [ATP, Adenosine 5′-triphosphate]",-TΔS,"P58W CaFADS; pH 7.0, no MgCl2",-3.8 ± 0.1 kcal/mol
same,ΔG,"P58W CaFADS; pH 7.0, no MgCl2",-6.5 ± 0.1 kcal/mol
same,ΔH,"P58W CaFADS; pH 7.0, no MgCl2",-2.7 ± 0.1 kcal/mol
same,kcat,"WT CaFADS [1]; ATP varied, RF at ~80% of maximum activity, apparent value, 20 mM PIPES, 0.8 mM MgCl2, pH 7.0, 25 °C",2.58 ± 0.083 s⁻¹
same,Km,"WT CaFADS [1]; read-out: Km^ATP, ATP varied, RF at ~80% of maximum activity, 20 mM PIPES, 0.8 mM MgCl2, pH 7.0, 25 °C",28 ± 4 µM
same,-TΔS,"L98W CaFADS; pH 7.0, no MgCl2",26 ± 6 kcal/mol
same,ΔH,"L98W CaFADS; pH 7.0, no MgCl2",-32 ± 6 kcal/mol
same,-TΔS,L98K CaFADS,33 ± 19 kcal/mol
same,ΔG,L98K CaFADS,-5.6 ± 0.2 kcal/mol
same,ΔH,L98K CaFADS,-39 ± 19 kcal/mol
same,-TΔS,"P56W CaFADS; pH 7.0, no MgCl2",11 ± 2 kcal/mol
same,ΔH,"P56W CaFADS; pH 7.0, no MgCl2",-16 ± 3 kcal/mol
same,-TΔS,"P56A/P58A CaFADS; pH 7.0, no MgCl2",-3.6 ± 0.2 kcal/mol
same,ΔG,"P56A/P58A CaFADS; pH 7.0, no MgCl2",-6.4 ± 0.1 kcal/mol
same,ΔH,"P56A/P58A CaFADS; pH 7.0, no MgCl2",-2.8 ± 0.2 kcal/mol
same,-TΔS,"L98A CaFADS; pH 7.0, no MgCl2",15 ± 2 kcal/mol
same,ΔG,"L98A CaFADS; pH 7.0, no MgCl2",-5.6 ± 0.1 kcal/mol
same,ΔH,"L98A CaFADS; pH 7.0, no MgCl2",-20 ± 3 kcal/mol
same,-TΔS,"WT CaFADS [2]; pH 7.0, no MgCl2",39 ± 6 kcal/mol
same,ΔH,"WT CaFADS [2]; pH 7.0, no MgCl2",-44 ± 6 kcal/mol
"Cc1cc2nc3c(=O)[nH]c(=O)nc-3n(C[C@H](O)[C@H](O)[C@H](O)COP(=O)(O)OP(=O)(O)OC[C@H]3O[C@@H](n4cnc5c(N)ncnc54)[C@H](O)[C@@H]3O)c2cc1C [FAD, Riboflavin 5′-adenosine diphosphate]",-TΔS,"P58W CaFADS; 10 mM MgCl2, pH 7.0",-7.0 ± 0.1 kcal/mol
same,ΔG,"P58W CaFADS; 10 mM MgCl2, pH 7.0",-7.6 ± 0.1 kcal/mol
same,ΔH,"P58W CaFADS; 10 mM MgCl2, pH 7.0",-0.56 ± 0.02 kcal/mol
same,difference spectra on titration with FAD,CaFADS variants [3]; saturating FAD,hardly produced difference spectra
same,-TΔS,"L98W CaFADS; 10 mM MgCl2, pH 7.0",-6.9 ± 0.1 kcal/mol
same,ΔG,"L98W CaFADS; 10 mM MgCl2, pH 7.0",-7.4 ± 0.1 kcal/mol
same,ΔH,"L98W CaFADS; 10 mM MgCl2, pH 7.0",-0.6 ± 0.1 kcal/mol
same,-TΔS,"P56W CaFADS; 10 mM MgCl2, pH 7.0",-6.1 ± 0.1 kcal/mol
same,ΔG,"P56W CaFADS; 10 mM MgCl2, pH 7.0",-6.9 ± 0.1 kcal/mol
same,ΔH,"P56W CaFADS; 10 mM MgCl2, pH 7.0",-0.9 ± 0.1 kcal/mol
same,-TΔS,"P56A/P58A CaFADS; 10 mM MgCl2, pH 7.0",-7.4 ± 0.1 kcal/mol
same,ΔG,"P56A/P58A CaFADS; 10 mM MgCl2, pH 7.0",-7.8 ± 0.1 kcal/mol
same,ΔH,"P56A/P58A CaFADS; 10 mM MgCl2, pH 7.0",-0.39 ± 0.1 kcal/mol
same,-TΔS,"WT CaFADS [2]; 10 mM MgCl2, pH 7.0",18 ± 1 kcal/mol
same,ΔH,"WT CaFADS [2]; 10 mM MgCl2, pH 7.0",-26 ± 1 kcal/mol
"Cc1cc2nc3c(=O)[nH]c(=O)nc-3n(C[C@H](O)[C@H](O)[C@H](O)COP(=O)(O)O)c2cc1C [FMN, Riboflavin 5′-phosphate]",-TΔS,"P58W CaFADS; 10 mM MgCl2, pH 7.0",-7.3 ± 0.1 kcal/mol
same,ΔG,"P58W CaFADS; 10 mM MgCl2, pH 7.0",-8.6 ± 0.1 kcal/mol
same,ΔH,"P58W CaFADS; 10 mM MgCl2, pH 7.0",-1.3 ± 0.1 kcal/mol
same,difference spectra after incubation with FMN,CaFADS variants [3]; saturating FMN,All the variants produced difference spectra
same,-TΔS,"L98W CaFADS; 10 mM MgCl2, pH 7.0",-7.2 ± 0.1 kcal/mol
same,ΔG,"L98W CaFADS; 10 mM MgCl2, pH 7.0",-8.7 ± 0.1 kcal/mol
same,ΔH,"L98W CaFADS; 10 mM MgCl2, pH 7.0",-1.5 ± 0.1 kcal/mol
same,Kd^FMN lower than WT,P56W CaFADS; P56W CaFADS vs WT,up to 4 fold
same,-TΔS,"P56W CaFADS; 10 mM MgCl2, pH 7.0",-6.5 ± 0.1 kcal/mol
same,ΔG,"P56W CaFADS; 10 mM MgCl2, pH 7.0",-7.9 ± 0.1 kcal/mol
same,ΔH,"P56W CaFADS; 10 mM MgCl2, pH 7.0",-1.4 ± 0.1 kcal/mol
same,ΔG,"P56A/P58A CaFADS; 10 mM MgCl2, pH 7.0",-8.8 ± 0.1 kcal/mol
same,ΔH,"P56A/P58A CaFADS; 10 mM MgCl2, pH 7.0",-1.8 ± 0.1 kcal/mol
same,"FMNAT activity (transformation of FMN into FAD), qualitative",CaFADS variants [4],none of the variants was neither capable of catalyzing the transformation of FMN into FAD
same,-TΔS,L98A CaFADS; [6],-7.9 ± 0.1 kcal/mol
same,ΔG,L98A CaFADS; [6],-9.0 ± 0.1 kcal/mol
same,ΔH,L98A CaFADS; [6],-1.2 ± 0.1 kcal/mol
same,-TΔS,"WT CaFADS [2]; 10 mM MgCl2, pH 7.0",15 ± 1 kcal/mol
same,ΔH,"WT CaFADS [2]; 10 mM MgCl2, pH 7.0",-22 ± 1 kcal/mol
L98A CaFADS (Corynebacterium ammoniagenes; L98A),Km,[5]; other: L98A CaFADS,1.5 ± 0.7 µM
L98K CaFADS (Corynebacterium ammoniagenes; L98K),Km,[5]; other: L98K CaFADS,4.0 ± 1.1 µM
L98W CaFADS (Corynebacterium ammoniagenes; L98W),Km,[5]; other: L98W CaFADS,1.6 ± 0.6 µM
P56A/P58A CaFADS (Corynebacterium ammoniagenes; P56A/P58A),Km,[5]; other: P56A/P58A CaFADS,0.9 ± 0.4 µM
P56W CaFADS (Corynebacterium ammoniagenes; P56W),Km,[5]; other: P56W CaFADS,0.4 ± 0.1 µM
P58W CaFADS (Corynebacterium ammoniagenes; P58W),Km,[5]; other: P58W CaFADS,1.3 ± 0.7 µM
